# Reference: article PMC11280325, “Design, Synthesis, and Characterization of Novel Thiazolidine-2,4-Dione-Acridine Hybrids as Antitumor Agents” (Molecules, 2024)
# Where a name gives a salt, the structure may show the parent alone.
# Legend:
# [1] = tested on: PATU; experiment: MTT assay, PATU 8902; assay type: cell-based, human; conditions: pancreas adenocarcinoma, 48 h incubation
# Description: (§1) The human cancer cell lines HeLa (cervical adenocarcinoma), HCT116 (colorectal adenocarcinoma), A2780 (human ovarian adenocarcinoma), A2780cis (human ovarian adenocarcinoma cisplatin-resistant), Jurkat (acute T-lymphoblastic leukemia), and Hep G2 (hepatocellular carcinoma) were cultured in an RPMI 1640 growth medium (Biosera, Kansas City, MO, USA). The cancer cell lines MDA-MB-231 (triple-negative breast adenocarcinoma), A2058 (human melanoma), U87 (human glioblastoma), PATU 8902 (pancreas adenocarcinoma), and A549 (human lung adenocarcinoma) were cultured in a DMEM medium (Biosera, Kansas City, MO, USA). The media were supplemented with 10% fetal bovine serum (FBS) (Invitrogen, Carlsbad, CA, USA) and 1× HyClone™ Antibiotic/Antimycotic Solution (GE Healthcare, Piscataway, NJ, USA).
# (§2) To evaluate the IC50 (half-maximal inhibitory concentration) and confirm the antiproliferative activity of the tested substances, we employed the colorimetric MTT assay (3-(4,5-dimethylthiazol-2-yl)-2,5-diphenyltetrazolium bromide) (Sigma-Aldrich Chemie, Steinheim, Germany). The cell lines were seeded in 96-well plates at a density of 5 × 10^3 to 10 × 10^3 cells per well. After 24 h, the tested substances, dissolved in the cultivation medium, were added to the cells at final concentrations of 5, 10, 20, and 50 µmol/L. The cells were then incubated for 48 h under standard cultivation conditions. Following the incubation period, MTT was added to each well. The MTT was metabolized by the cells into insoluble formazan crystals, which were subsequently dissolved by adding 100 µL of 10% SDS. After another 24 h, the absorbance was measured at a wavelength of 540 nm using the automated Cytation™ 3 Cell Imaging Multi-Mode Reader (Biotek, Winooski, VT, USA). The experiments were performed in at least three independent repetitions. IC50 values were calculated using a nonlinear regression method.
# [2] = tested on: A2058; experiment: MTT assay, A2058; assay type: cell-based; conditions: human melanoma, 48 h incubation
# Description: as §1, §2
# [3] = tested on: MCF-10A; experiment: MTT assay, MCF-10A non-cancerous cells; assay type: cell-based, human; conditions: non-cancerous epithelial breast cells, 48 h incubation
# Description: (§3) The non-cancerous cell line MCF-10A (human epithelial breast cells) was cultured in a DMEM F12 medium supplemented with 10% FBS (Invitrogen, Carlsbad, CA, USA), 1× HyClone™ Antibiotic/Antimycotic Solution (GE Healthcare, Piscataway, NJ, USA), insulin, hEGF, and hydrocortisone. The BJ-5ta cells (human dermal fibroblasts) were cultured in a DMEM-M199 4:1 medium mixture, supplemented with 10% FBS and hygromycin B (0.01 mg/mL). The cells were maintained under standard conditions with an atmosphere containing 5% CO2 at 37 °C. Cell viability, estimated by trypan blue exclusion, was consistently greater than 95% before each experiment.
# as §2
# [4] = tested on: HCT116; experiment: MTT assay, HCT116; assay type: cell-based, human; conditions: colorectal adenocarcinoma, 48 h incubation
# Description: as §1, §2
# [5] = tested on: Bj-5ta; experiment: MTT assay, BJ-5ta non-cancerous fibroblasts; assay type: cell-based, human; conditions: non-cancerous dermal fibroblasts, 48 h incubation
# Description: as §3, §2
# [6] = tested on: Hep G2; experiment: MTT assay, Hep G2; assay type: cell-based, human; conditions: hepatocellular carcinoma, 48 h incubation
# Description: as §1, §2
# [7] = tested on: HeLa; experiment: MTT assay, HeLa; assay type: cell-based, human; conditions: cervical adenocarcinoma, 48 h incubation
# Description: as §1, §2
# [8] = tested on: A549; experiment: MTT assay, A549; assay type: cell-based, human; conditions: lung adenocarcinoma, 48 h incubation
# Description: as §1, §2
# [9] = tested on: A2780; experiment: MTT assay, A2780; assay type: cell-based, human; conditions: ovarian adenocarcinoma, 48 h incubation
# Description: as §1, §2
SMILES,"IC50 ([1]; Homo sapiens, PaTu 8902, 48 h)","IC50 ([2]; Homo sapiens, A2058, 48 h)","IC50 ([3]; Homo sapiens, MCF-10A, 48 h)","IC50 ([4]; Homo sapiens, HCT-116, 48 h)","IC50 ([5]; Homo sapiens, Fibroblast, 48 h)","IC50 ([6]; Homo sapiens, HepG2, 48 h)",melting point,"IC50 ([7]; Homo sapiens, HeLa, 48 h)",IC50 [8],"IC50 ([9]; Homo sapiens, A2780, 48 h)",IC50 [3],IC50 [4],"IC50 ([8]; Homo sapiens, A549, 48 h)",IC50 [1],IC50 [2],IC50 [5],IC50 [6],IC50 [7],IC50 [9]
"O=C(COc1ccc(/C=C2\SC(=O)N(Cc3c4ccccc4nc4ccccc34)C2=O)cc1)Nc1cccc(C(F)(F)F)c1 [Compound 7f, 2-(4-{[(5Z)-3-[(Acridin-9-yl)methyl]-2,4-dioxo-1,3-thiazolidin-5-ylidene]methyl}phenoxy)-N-[3-(trifluoromethyl)phenyl]acetamide]",11.5 ± 2.06 µM,> 50 µM,9.8 ± 1.9 µM,8.8 ± 3.7 µM,32.6 ± 7.4 µM,28.1 ± 5.5 µM,250 to 251 °C (dec.),6.2 ± 1.3 µM,16.4 ± 1.85 µM,> 50 µM,,,,,,,,,
"O=C(COc1ccc(/C=C2\SC(=O)N(Cc3c4ccccc4nc4ccccc34)C2=O)cc1)Nc1cc(C(F)(F)F)cc(C(F)(F)F)c1 [Compound 7g, 2-(4-{[(5Z)-3-[(Acridin-9-yl)methyl]-2,4-dioxo-1,3-thiazolidin-5-ylidene]methyl}phenoxy)-N-[3,5-bis(trifluoromethyl)phenyl]acetamide]",> 50 µM,> 50 µM,,,> 50 µM,> 50 µM,227 to 228 °C (dec.),20.9 ± 2.8 µM,,> 50 µM,> 50 µM,18 ± 1.2 µM,18.9 ± 3.85 µM,,,,,,
"COc1cc(/C=C2\SC(=O)N(Cc3c4ccccc4nc4ccccc34)C2=O)ccc1OCC(=O)Nc1cc(OC)c(OC)c(OC)c1 [Compound 12c, 2-(4-{[(5Z)-3-[(Acridin-9-yl)methyl]-2,4-dioxo-1,3-thiazolidin-5-ylidene]methyl}-2-methoxyphenoxy)-N-(3,4,5-trimethoxyphenyl)acetamide]",> 50 µM,> 50 µM,> 50 µM,,> 50 µM,> 50 µM,268 to 269 °C,19.9 ± 2.05 µM,,> 50 µM,,15.1 ± 2 µM,> 50 µM,,,,,,
"O=C(COc1ccc(/C=C2\SC(=O)N(Cc3c4ccccc4nc4ccccc34)C2=O)cc1)Nc1cccc(C(F)(F)F)c1 [7f·2HCl, 2-(4-{[(5Z)-3-[(Acridin-9-yl)methyl]-2,4-dioxo-1,3-thiazolidin-5-ylidene]methyl}phenoxy)-N-[3-(trifluoromethyl)phenyl]acetamide dihydrochloride]",,,,,,,,,34 ± 6.05 µM,,7.7 ± 1.5 µM,15.2 ± 3.4 µM,,9.82 ± 1.92 µM,> 50 µM,39.5 ± 6.5 µM,27.4 ± 5.9 µM,6.9 ± 0.2 µM,> 50 µM
"COc1cc(NC(=O)COc2ccc(/C=C3\SC(=O)N(Cc4c5ccccc5nc5ccccc45)C3=O)cc2OC)cc(OC)c1 [12b·2HCl, 2-(4-{[(5Z)-3-[(Acridin-9-yl)methyl]-2,4-dioxo-1,3-thiazolidin-5-ylidene]methyl}-2-methoxyphenoxy)-N-(3,5-dimethoxyphenyl)acetamide dihydrochloride]",,,,,,,,,> 50 µM,,12.4 ± 1.9 µM,27.3 ± 3.75 µM,,> 50 µM,> 50 µM,29.6 ± 4.4 µM,> 50 µM,11.9 ± 7.4 µM,15 ± 1.4 µM
"COc1cc(NC(=O)COc2ccc(/C=C3\SC(=O)N(Cc4c5ccccc5nc5ccccc45)C3=O)cc2)cc(OC)c1OC [7c·2HCl, 2-(4-{[(5Z)-3-[(Acridin-9-yl)methyl]-2,4-dioxo-1,3-thiazolidin-5-ylidene]methyl}phenoxy)-N-(3,4,5-trimethoxyphenyl)acetamide dihydrochloride]",,,,,,,,,> 50 µM,,> 50 µM,16.9 ± 1.75 µM,,> 50 µM,> 50 µM,> 50 µM,> 50 µM,21.4 ± 5.8 µM,> 50 µM
"COc1cc(/C=C2\SC(=O)N(Cc3c4ccccc4nc4ccccc34)C2=O)ccc1OCC(=O)Nc1cccc(C(F)(F)F)c1 [12f·2HCl, 2-(4-{[(5Z)-3-[(Acridin-9-yl)methyl]-2,4-dioxo-1,3-thiazolidin-5-ylidene]methyl}-2-methoxyphenoxy)-N-[3-(trifluoromethyl)phenyl]acetamide dihydrochloride]",,,,,,,,,> 50 µM,,> 50 µM,4.98 ± 2.9 µM,,> 50 µM,> 50 µM,> 50 µM,> 50 µM,19.4 ± 6.48 µM,> 50 µM
"COc1cc(/C=C2\SC(=O)N(Cc3c4ccccc4nc4ccccc34)C2=O)ccc1OCC(=O)Nc1cc(C(F)(F)F)cc(C(F)(F)F)c1 [12g·2HCl, 2-(4-{[(5Z)-3-[(Acridin-9-yl)methyl]-2,4-dioxo-1,3-thiazolidin-5-ylidene]methyl}-2-methoxyphenoxy)-N-[3,5-bis(trifluoromethyl)phenyl]acetamide dihydrochloride]",,,,,,,,,> 50 µM,,> 50 µM,26.7 ± 9.01 µM,,> 50 µM,> 50 µM,> 50 µM,> 50 µM,25.1 ± 6.4 µM,> 50 µM
"COc1cc(/C=C2\SC(=O)N(Cc3c4ccccc4nc4ccccc34)C2=O)ccc1OCC(=O)Nc1cc(OC)c(OC)c(OC)c1 [12c·2HCl, 2-(4-{[(5Z)-3-[(Acridin-9-yl)methyl]-2,4-dioxo-1,3-thiazolidin-5-ylidene]methyl}-2-methoxyphenoxy)-N-(3,4,5-trimethoxyphenyl)acetamide dihydrochloride]",,,,,,,,,> 50 µM,,> 50 µM,5.4 ± 2.4 µM,,> 50 µM,> 50 µM,> 50 µM,> 50 µM,20.2 ± 5.4 µM,> 50 µM
"COc1cc(NC(=O)COc2ccc(/C=C3\SC(=O)N(Cc4c5ccccc5nc5ccccc45)C3=O)cc2)cc(OC)c1 [7b·2HCl, 2-(4-{[(5Z)-3-[(Acridin-9-yl)methyl]-2,4-dioxo-1,3-thiazolidin-5-ylidene]methyl}phenoxy)-N-(3,5-dimethoxyphenyl)acetamide dihydrochloride]",,,,,,,,,21.9 ± 3.35 µM,,11.3 ± 2.05 µM,17.4 ± 1.74 µM,,> 50 µM,> 50 µM,34.5 ± 5.5 µM,> 50 µM,6.11 ± 1.2 µM,> 50 µM
"O=C(COc1ccc(/C=C2\SC(=O)N(Cc3c4ccccc4nc4ccccc34)C2=O)cc1)Nc1ccccc1 [7a·2HCl, 2-(4-{[(5Z)-3-[(Acridin-9-yl)methyl]-2,4-dioxo-1,3-thiazolidin-5-ylidene]methyl}phenoxy)-N-phenylacetamide dihydrochloride]",,,,,,,,,17 ± 1.35 µM,,17.6 ± 4.3 µM,13.1 ± 2.3 µM,,> 50 µM,> 50 µM,29.9 ± 7.2 µM,> 50 µM,17.7 ± 4.04 µM,> 50 µM
"COc1cc(NC(=O)COc2ccc(/C=C3\SC(=O)N(Cc4cccc5cc6ccccc6nc45)C3=O)cc2)cc(OC)c1 [8b·HCl, 2-(4-{[(5Z)-3-[(Acridin-4-yl)methyl]-2,4-dioxo-1,3-thiazolidin-5-ylidene]methyl}phenoxy)-N-(3,5-dimethoxyphenyl)acetamide hydrochloride]",,,,,,,,,> 50 µM,,> 50 µM,32.4 ± 6.3 µM,,> 50 µM,> 50 µM,> 50 µM,> 50 µM,47.9 ± 1.4 µM,> 50 µM
